The test system of test [1] is B. globigii spores. The test can be described thus: Spore decontamination followed immediately by dilution and plating (CFU titer). The test is classed as cell-based, Bacillus globigii. Conditions: for reduction of spores: 1% surfactant in water, >10^7 spores/ml, apparently independent of pH; for sporicidal (bacterial) activity: in the presence of moderate applied heat. As to the method: In the examples, below, three representative quaternary ammonium surfactants were tested for decontamination of Bacillus spores. The three exemplified quaternary ammonium surfactants are hexadecyltrimethylammonium chloride, dicocodimethylammonium chloride, and alkyldimethylbenzylammonium chloride. All three quaternary ammonium surfactants were dissolved in water and tested over a pH range. Testing occurred with and without applied heat. All experiments were performed with at least 3-4 replicates with many experiments reproduced numerous times.
(§1) Bacillus spores were suspended in the appropriate solvent at a concentration of 2 mg spores/ml (approximately 2×10^8 spores/ml). Starting volume of 1.125 ml of spores at 2 mg/ml. 3 or 4 spore aliquots of 50 μl per aliquot were removed. These aliquots were serially diluted in 1×PBS and plated on LB or TSA agar plates. This is a control step that gave the spore titer or colony-forming units (CFUs) at Time=0 minutes (T0). The appropriate decontamination solution (2× concentration) was aliquoted into each of 3 or 4 Eppendorf tubes with 200 ul per tube. Then 200 ul of spores were added and mixed to give a final concentration of 1× decontamination solution and 1 mg spores/ml. The spores in decontamination solution were then mixed and incubated for specific time periods and temperatures. A typical incubation was in a room temperature (25° C.) water bath for 30 (or 60) minutes. There was no agitation during the incubation period in order to mimic real world situations. Aliquots of spores were removed after 30 (or 60) minutes. The aliquots (3 or 4 replicates) were serially diluted in 1×PBS and plated on LB or TSA agar plates. This gave a CFU at Time=30 minutes (T30), which is the titer of live spores after the decontamination test. After removing the aliquots at the 30-minute time point, test (or control) samples were then immediately incubated in a 70° C. water bath for another 30 minutes. The samples were then serially diluted and plated on to LB or TSA agar plates to determine the titer after the 70° C. incubation. The entire dilution series from 0.1 through 0.000001 dilutions were plated. An optional wash assay was employed to confirm that the surfactant was killing spores rather than behaving as a bacterostatic agent. The wash assay included centrifuging and washing spores after decontamination. 100 ul of spores (after decontamination) were added to 200 ul of water and centrifuged at 10,000×g for one minute at room temperature. The supernatant was removed and saved. 10% of the supernatant volume was plated and titered as a wash control, to determine if live spores were being removed in the supernatant. Spore pellets were suspended in 1 ml of water and then pelleted at 10,000×g for one minute at room temperature. The supernatant was removed and saved. Spore pellets were washed again with 1 ml of water. Then spore pellets were suspended, serially diluted and plated. This removed the surfactant prior to plating and confirmed results that were bactericidal rather than bacterostatic.

For test [2], the system named is B. globigii spores. The test can be described thus: Optional wash assay (surfactant removed by centrifuging and washing spores before plating). It is filed as cell-based, Bacillus globigii. The following applies: between pH5 and pH7 at 70° C.; for reduction of spore decontamination (wash assay): data not shown. How it is done:
as §1
An optional wash assay was employed to verify the results (data not shown). […]

[3] abbreviates: 30 minutes at 25° C. (room temperature).

Consider `CCCCCCCCCCCCCCCC[N+](C)(C)C.[Cl-]` [hexadecyltrimethylammonium chloride], for which the reduction of spores entry in test [1] (setting [3]) is on record as “approximately 1 order-of-magnitude”. In test [1] (30 minutes at 70° C., complete), the reduction of spores result is listed as “greater than 7 orders-of-magnitude”. Moreover, the “sporicidal (bacterial) activity” value in test [1] is “strong sporicidal (bacterial) activity”. Also, in test [2], the “spores alive out of the original 10-100 million spores (wash assay)” value is reported as “less than 10 thousand” and the “reduction of spore decontamination (wash assay)” value was “over 4 orders-of-magnitude”.

On to dicocodimethylammonium chloride, for which, in test [1] (setting [3]), the reduction of spores result was “approximately 1 order-of-magnitude”. For the same compound, the reduction of spores result in test [1] (30 minutes at 70° C., complete) is “greater than 7 orders-of-magnitude”. In test [1], the “sporicidal (bacterial) activity” value was “strong sporicidal (bacterial) activity”. Also, in test [2], the “spores alive out of the original 10-100 million spores (wash assay)” value is given as “less than 10 thousand” and the “reduction of spore decontamination (wash assay)” value was “over 4 orders-of-magnitude”.

On to alkyldimethylbenzylammonium chloride, for which the reduction of spores entry is “approximately 1 order-of-magnitude” in test [1] (setting [3]) and “greater than 7 orders-of-magnitude” in test [1] (30 minutes at 70° C., complete). The “sporicidal (bacterial) activity” value in test [1] is “strong sporicidal (bacterial) activity”.
